Measured values: patent US20080226579A1, “Novel Resinate Complex of S-Clopidogrel and Production Method Thereof” (Chong Kun Dang Pharmaceutical Corp., priority 2005, published 2008)

Assay: Heat stability test (stress storage at 80° C., clopidogrel content by HPLC)
Format: physicochemical
Details: tightly closed container at 80° C., day 3, content of clopidogrel by HPLC
Procedure: Each of the (+)-clopidogrel isomer-resinate complex, so obtained from Examples 1, 2 and 8, including a solid form of (+)-clopidogrel optical isomer-Amberlite complex and (+)-clopidogrel isomer (free base), so obtained from Comparative examples 1 and 2, were put into a tightly closed container at 80° C. to determine the contents of clopidogrel in the baseline, day 1 and day 3 by HPLC analysis in accordance with a content uniformity test of the U.S. Pharmacopoeia.
(HPLC Analysis) • Column: ULTRON ES-OVM chiral 5 ? , 4.6×250 mm • Mobile phase: 0.01 M potassium dihydrogen phosphate solution/acetonitrile 75:25 • Flow rate: 1 mL/min • Column temperature: Room temperature • Detector: Ultraviolet absorption spectrophotometer (detection wavelength: 220 nm) • Injection volume: 10 ?

decrease in content at day 3: 70%
SMILES: COC(=O)[C@H](c1ccccc1Cl)N1CCc2sccc2C1 [(+)-clopidogrel isomer (free base), methyl(+)-(S)-(2-chlorophenyl)(6,7-dihydro-4H-thieno[3,2-c]pyridine-5-yl)acetate]
